This note sets out measurements from patent publication US9657081B2, “Inhibiting peptides derived from triggering receptor expressed on myeloid cells-1 (TREM-1) TREM-like transcript 1 (TLT-1) for treatment of cardiovascular diseases” (INSERM (Institut National de la Sante et de la Recherche …, priority 2013, dated 2017).

In assay [1] the test system is TREM-1. Put plainly: Rat model of myocardial ischemia-reperfusion, physiologic parameters and micro-TEP imaging. The format is in vivo. On the procedure: Adult male Wistar rats (360-380 g) were used. All rats were anaesthetized with ketamine (100 mg/kg, intramuscularly) and mechanically ventilated. After a left thoracotomy, the left coronary artery was identified and ligated with a 6-0 prolene surgical suture. LAD occlusion was confirmed by a change in myocardial color from red to white in the ischemia area (Left ventricle). The chest was closed and the skin was sutured with 6-0 silk. The animals returned to their cage where they were supervised until their complete recovery. The postoperative mortality rate of all rats was 20%.
After surgical LAD occlusion, importance of ischemic area was evaluated by micro-TEP imaging. Animals were then randomized to receive peptide (5 mg/kg) every 24 h for 5 days or placebo (vehicle).
A further evaluation was performed at 6 weeks by micro-TEP imaging and conductance catheter (Millar) in order to study the treatment effect on myocardial remodeling and myocardial function.
Animals received same surgery than in permanent ischemia, but with reperfusion of ischemic area by release of the LAD ligation after 60 minutes of ischemia. The same protocol as described above was then applied.
In all animals, approximately 70 MBq of ^18F-FDG (in a 0.3-0.5 ml volume) was injected intravenously and under a short anaesthesia (1.5-2.5% of isoflurane inhalation) 60 min prior to initiating PET recording. Recording was acquired in list mode under continuous anaesthesia by isoflurane, using a dedicated small animal PET system (Inveon, Siemens, Knoxville, Tenn., USA). The animals were positioned in the prone position and placed on a heating pad to maintain a body temperature within the normal range. The animals were connected to a standard ECG monitor by three electrodes placed on the inner surfaces of limb extremities. Recording times were 20 min for 18F emission and 6 min for 57Co transmission. The coincidence timing window was set to 3.4 ns and the energy window between 350 and 650 keV. Images were reconstructed in 16 cardiac intervals, providing a temporal resolution of 11-15 ms for common heart rate values. Under these conditions, the axial spatial resolution was less than 1.5 mm. In addition, on LV rat phantoms obtained by a stereolithography process, a precise determination of the actual cavity volumes was provided by FDG PET images above the level of 100 μl corresponding to the lower limit for the LV endsystolic volume in adult.
To investigate the role of TREM-1- and TLT-1-derived peptides in a more relevant model of MI, we performed a transient coronary artery ligation (ischemia-reperfusion model: IR) in rats. After randomisation, animals were then imaged under anaesthesia (micro-TEP) and administered with TREM-1- and TLT-1-derived peptides (3 mg/kg daily for 5 days i.p.) or LR12-scrambled peptide. Imaging was then repeated at 6 weeks before we studied cardiac function by using a conductance catheter (Millar).

Assay [2] deals with T1, TREM-1 (Mus musculus, UniProt Q9JKE2).
T1 construct: endogenous in cells; host or cells: living mice (C57BL, Balb/c, ApoE-/-), in vivo
T1 sequence (Q9JKE2 21-230): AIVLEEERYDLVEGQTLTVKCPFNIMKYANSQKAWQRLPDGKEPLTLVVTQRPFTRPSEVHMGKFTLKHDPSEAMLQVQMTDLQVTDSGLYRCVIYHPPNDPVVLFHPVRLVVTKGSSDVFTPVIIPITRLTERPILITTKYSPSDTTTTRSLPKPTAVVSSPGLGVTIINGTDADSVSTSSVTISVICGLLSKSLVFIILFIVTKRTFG
As to the kind of experiment: Mouse model of myocardial infarction, survival. The format is in vivo. The conditions noted are these: 100 μg daily for 5 days i.p., beginning 60 min after ligation; Log-Rank p<0.01. The protocol:
Adult male Balb/c mice (20-23 g) were subjected to myocardial ischemia and were randomly grouped (n=10-15 per group) to receive repeated TREM-1- and TLT-1-derived peptides (100 μg in 0.2 mL NaCl 0.9% once a day for 5 days), scrambled-LR12 (100 μg in 0.2 mL NaCl 0.9% once a day for 5 days), or 10 μg anti-TREM-1 mAb in 0.2 mL NaCl 0.9% i.p. injections. Survival was monitored over 1 wk and analyzed by Log Rank test. (There were no deaths after the 5th day). Data are representative of at least 15 different experiments.
All procedures were performed on mice male C57BL/C ranging in age from 6-8 weeks. Mice were anesthetized by an intraperitoneal injection of xylazine (60 mg/kg) and fixed in supine position. The trachea was intubated and ventilated (the tidal volume was 200 μl/25 g and the respiratory rate was 120 breaths/min). After a left thoracotomy, the left coronary artery was identified and ligated with an 8-0 prolene surgical suture at 1.0 mm distal from tip of the left auricle. LAD occlusion was confirmed by a change in myocardial color from red to white in the ischemia area (Left ventricle). The chest was closed and the skin was sutured with 6-0 silk. […]
Mice were monitored after surgery for mortality. Mice were randomized to receive or not peptides (daily ip injection for 5 days, 5 mg/kg) and monitored for survival. […]

Regarding “LQEEDAGEYGCM (listed as Homo sapiens) [TLT1-LR12]”, in the assay on TREM-1 [1] (Baseline), the Body weight amounted to 391 ± 9 g, the EDV turned out to be 511 ± 55 µL, the EF is given as 47 ± 6% and the ESV turned out to be 251 ± 75 µL. Besides, in the assay on TREM-1 [1] (Baseline), the Heart rate was 343 ± 43 bpm, the “MI Areas” value was 41 ± 20 % of LV and the Systolic blood pressure is 134 ± 2 mmHg. In the assay on TREM-1 [1] (Six weeks), the Body weight is given as 439 ± 12 g; the “Body weight, difference with baseline” value amounted to 48 ± 10 g; the EDV amounted to 620 ± 34 µL; the “EDV, difference with baseline” value came to 109 ± 55 µL. In the assay with TREM-1 [1] (Six weeks), the EF came out at 56 ± 5%; the “EF, difference with baseline” value came out at 9 ± 7%; the ESV was 273 ± 47 µL; the “ESV, difference with baseline” value was determined as 22 ± 18 µL. For the same sequence, in the assay with TREM-1 [1] (Six weeks), the Heart rate stood at 370 ± 25 bpm; the “Heart rate, difference with baseline” value worked out at 27 ± 22 bpm; the “MI Areas” value is recorded as 3 ± 9 % of LV; the “MI Areas, difference with baseline” value was −38 ± 8 % of LV. Moreover, in the assay with TREM-1 [1] (Six weeks), the Systolic blood pressure was 167 ± 6 mmHg and the “Systolic blood pressure, difference with baseline” value came out at 33 ± 6 mmHg. Also, the “survival after permanent coronary artery ligation” value with TREM-1 [2] was “All but 1 LR12-treated animals survived”.
